Source: patent publication US20230203025A1, “ENHANCERS OF PARTICULATE GUANYLYL CYCLASE RECEPTOR A” (Mayo Foundation for Medical Education and Research, priority 2020, published 2023)

What was measured:
[1] = system: primary human cardiomyocytes (HCMs); assay: cGMP generation in primary human cardiomyocytes; format: cell-based
[2] = system: human visceral adipocytes; assay: browning and glycerol production in human visceral adipocytes; format: cell-based
plasma stability, mouse = format: in vitro ADME
[3] = system: primary human renal proximal tubular cells (HRPTCs); assay: cGMP generation in primary human renal proximal tubular cells; format: cell-based
From the text: HRPTCs represent an important human cell line as renal tubular injury and apoptosis leads to impaired renal function and structure.

[4] = system: spontaneously hypertensive rats (SHRs); assay: IV bolus in spontaneously hypertensive rats; format: in vivo, rat; settings: SHR, single IV bolus 10 mg/kg
Experimental: Methods (IV Bolus Administration of Compound 19 in (SHRs): the cGMP generating and blood pressure lowering actions of a single IV bolus dose of Compound 19 at 10 mg/kg in spontaneously hypertensive rats (SHRs; n=2; 12 weeks old; Envigo, East Millstone, N.J.) were investigated. Studies were performed in accordance with the Animal Welfare Act and with approval of the Mayo Clinic Institutional Animal Care and Use Committee.
SHRs were anesthetized in an induction chamber with inhaled isoflurane 3%.
During this brief state of anesthesia, SHRs were administered Inactin (100 mg/kg; IP to induce anesthesia and then maintained with by additional Inactin 100 mg/kg (IP), as required. Once adequate anesthesia was achieved, the anesthetized SHRs were subjected to vessel and bladder cannulation for Compound 19 administration, blood sampling and urine collection. A polyethylene (PE)-50 tube catheter was placed into the jugular vein for Compound 19 intravenous (IV) administration. The carotid artery was cannulated with a PE-50 tube catheter for blood pressure monitoring and blood sampling/collection. The bladder was accessed and cannulated with a PE-50 tube catheter for passive urine collection. After completion of the above procedural set up, a 45-minute equilibration period was performed that included a 30-minute baseline urine collection and a single baseline blood sample was performed.

pGC-A = biological target: T1, pGC-A (Homo sapiens, UniProt P16066); assay: cGMP production by HTRF in HEK293 cells overexpressing pGC-A; format: cell-based
T1 construct: expressed in transfected cells; host or cells: HEK293
T1 sequence (P16066 33-1061): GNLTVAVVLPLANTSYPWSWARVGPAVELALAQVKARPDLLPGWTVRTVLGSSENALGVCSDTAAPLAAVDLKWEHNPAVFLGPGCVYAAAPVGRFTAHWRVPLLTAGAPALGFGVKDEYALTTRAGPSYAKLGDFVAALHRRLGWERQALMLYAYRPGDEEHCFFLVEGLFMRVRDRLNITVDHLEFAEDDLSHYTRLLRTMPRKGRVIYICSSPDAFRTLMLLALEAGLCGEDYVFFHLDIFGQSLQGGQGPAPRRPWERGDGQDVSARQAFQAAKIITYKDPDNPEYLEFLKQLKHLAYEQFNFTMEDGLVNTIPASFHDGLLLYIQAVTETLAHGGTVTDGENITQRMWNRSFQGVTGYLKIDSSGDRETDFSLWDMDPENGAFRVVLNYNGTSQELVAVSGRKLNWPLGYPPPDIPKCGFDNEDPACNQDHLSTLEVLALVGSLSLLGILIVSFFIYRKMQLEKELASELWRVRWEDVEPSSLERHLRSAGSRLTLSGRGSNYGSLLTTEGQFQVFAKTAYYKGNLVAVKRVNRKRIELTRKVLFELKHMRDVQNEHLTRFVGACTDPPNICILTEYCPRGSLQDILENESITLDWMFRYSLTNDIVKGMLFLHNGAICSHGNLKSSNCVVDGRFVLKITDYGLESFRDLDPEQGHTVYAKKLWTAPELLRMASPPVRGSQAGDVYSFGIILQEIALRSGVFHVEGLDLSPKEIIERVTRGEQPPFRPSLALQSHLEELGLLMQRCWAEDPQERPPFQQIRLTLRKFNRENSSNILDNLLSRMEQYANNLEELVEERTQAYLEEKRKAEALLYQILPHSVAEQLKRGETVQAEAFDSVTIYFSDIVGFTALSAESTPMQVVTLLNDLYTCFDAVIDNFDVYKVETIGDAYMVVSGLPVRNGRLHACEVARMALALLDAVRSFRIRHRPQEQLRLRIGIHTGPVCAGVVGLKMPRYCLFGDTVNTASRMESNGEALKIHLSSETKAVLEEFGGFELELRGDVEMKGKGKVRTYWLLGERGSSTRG
T1 sequence (P01160 124-151 partner limits assumed): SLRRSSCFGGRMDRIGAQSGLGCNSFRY
Experimental: Assay details: 20 nL of 10 μM test compound in DMSO was added to columns 5-48 of 1536 well white high base screening plates (Corning, New York, N.Y.) cells using 550 ECHO acoustic dispenser (Labcyte, San Jose, Calif.). […] HEK293 cells overexpressing GC-A were resuspended in assay media (OptimMem media containing 2% Heat-inactivated Fetal bovine serum and L-glutamine) at a density of 6×10^5 cells/mL and 2 μL were plated in screening plates (1200 cells/well) in suspension using a Bioraptr 2. Plates were spun at 1000 rpm for 1 min and incubated for 30 min at room temperature. 1.5 μL d2-labled cGMP followed by 1.5 uL Eu^3+ cryptate-labeled anti-cGMP cGMP detection kit (CiBio; #62GM2PEC) prepared according to manufacturer's protocol were added to all wells using a Bioraptr 2 and TR-FRET signal was detected on an EnVision detector (PerkinElmer).

[5] = system: primary human cardiomyocytes (HCMs); assay: inhibition of TGF-beta 1 induced human cardiomyocyte hypertrophy; format: cell-based; settings: TGF-β1 5 ng/mL
Experimental: Methods (Inhibition of Human Cardiac Hypertrophy In Vitro): primary human cardiomyocytes (HCMs) were grown in growth media to 50% confluence and then were subjected to serum starvation for 24 hrs. After that, 5 ng/mL of the cytokine TGFβ-1 (R&D Systems) was added to the media for 48 hrs to induce HCM hypertrophy. […] Normal cell buffer served as a vehicle only control, where TGFP-1 alone served as the positive control. Analysis for cell surface area (μm^2) was performed using the ImageJ software at the end of the study.
Results: to further support the cGMP generation in human primary cells leads to favorable biological GC-A mediated, the anti-hypertrophic effects were assessed of Compound 19 on live HCMs stressed with TGF-β1 (5 ng/mL), using a state-of-the-art live cell imaging platform (IncuCyte System).

[6] = hepatic microsomal stability, human; format: in vitro ADME

- Plasma Stability (% remaining at 1 h) (plasma stability, mouse): 109.7%
- Emax (pGC-A; HEK293, cGMP normalized to maximal amount produced by an EC80 concentration of ANP, read-out: Max efficacy): 82%
- EC50 (pGC-A; HEK293 pGC-A cells, cGMP HTRF, in the presence of EC20 concentration of ANP): 390 nM
- cGMP activity in cells expressing pGC-A (pGC-A; in the absence of ANP): devoid of cGMP activity
- Hepatic Microsomal Stability (% remaining at 1 h) [6]: 98.2%
SMILES: CN(C)CCN1CCCC(C(=O)Nc2nc3c(F)cc(F)cc3s2)C1 (centres unmarked) [Compound 19]
- cGMP generation ([1]; HCMs, 1, 5 or 10 μM compound in the presence of ANP (10^−10 M)): clear increase in cGMP generation
- cGMP generation ([1]; HCMs, compound alone at similar dose, no ANP): did not generate cGMP generation
- expression of the browning protein UCP1 ([2]; compound 19 added to ANP): augmented UCPI expression
- ANP induction of glycerol ([2]; compound 19 with ANP, not illustrated): dose dependently increased
- cGMP generation ([3]; HRPTCs, 1, 5 or 10 μM compound in the presence of ANP (10^−10 M)): clear increase in cGMP generation
- cGMP generation ([3]; HRPTCs, compound alone at similar dose, no ANP): did not generate cGMP generation
- diuresis (urine volume) [4]: increase in diuresis
- mean arterial pressure ([4]; 0-60 min): decrease in mean arterial pressure
- plasma cGMP ([4]; compared to baseline): increase
- urinary cGMP ([4]; compared to baseline): increase
- inhibition of HCM hypertrophy ([5]; Compound 19 (1, 5, 10 μM) with ANP 10^−8 M): significant inhibition
- inhibition of HCM hypertrophy ([5]; Compound 19 (1, 5, 10 μM) with ANP 10^−10 M): significant inhibition
